Laboratory results published in paper PMC6749073 (Frontiers in Pharmacology, 2019).

Legend:
[1] = test system: A549, NCI-H292, NCI-H460, and LTEP-A-2 xenograft models; experiment: ED50 (50% reduction of xenograft tumor volume) in nude mice; format: in vivo; conditions: dose reducing xenograft tumor volume by 50%; average over A549, NCI-H292, NCI-H460, and LTEP-A-2 xenograft models
Protocol: (§1) After injection, the animals’ condition was monitored every day for over 1 week by an observer who was blinded to the dose and drug allocation.
(§2) Estimates for ED50 and LD50 were calculated through nonlinear regression, data were fitted to a sigmoidal dose-response relationship in Prism (version 4.0a; GraphPad Software, Inc., San Diego, CA). The data were fitted to the equation:
(§3) Y=Ymin+Ymax−Ymin/1+10^(LogED50−X)∗HillSlope
(§4) where X is the logarithm of concentration, and Y is the response.

Calu-3 = experiment: MTT cell viability assay, Calu-3; format: cell-based, human; conditions: 48 h
Protocol: (§5) Cells were seeded at a density of 1 × 10^4 cells per well in 96-well plates. The following day, these cells were washed with PBS and exposed to different concentrations of testing compounds in culture medium for 48 h. MTT solution (10 μl at 5 mg/ml) was added to each well. After 4 h of incubation at 37°C, the medium was removed, and the insoluble precipitate was dissolved in 100 μl DMSO (Sigma, St. Louis, MO, USA). The absorbance of the dissolved solution at 490 nm was measured using a microplate reader (TECAN A-5082; Megllan, Austria). Cell viability percentages were calculated by dividing the mean optical density (OD) of compound-containing wells by that of the control wells. Each experiment was replicated three times. The IC50 of testing drugs was calculated with Statistical Product and Service Solutions software (SPSS, version 16.0).

normal ICR mice = experiment: LD50 in normal ICR mice; format: in vivo; conditions: tail vein injection
Protocol: as §1, §2, §3, §4

A549 tumors = experiment: TUNEL assay of A549 xenograft tumor sections; format: in vivo, mice; conditions: diplatin 120 mg/kg, DDP 6 mg/kg, CBP 60 mg/kg
Protocol: (§6) Tumor tissues were fixed in 10% formalin for 4 h and then embedded in paraffin. Five-micrometer-thick sections were sliced and stained for apoptotic cells with TUNEL assay kit in accordance with manufacturer instructions (KGI Biotechnology Company, Nanjing, China). A positive result was marked by brown staining in the cell nucleus. Cell images were acquired through a microscope (Olympus BX 51, Japan). The apoptotic index (AI) was determined as a percentage of apoptotic cells from at least 1,000 cells in each mouse.

HCC827 = experiment: MTT cell viability assay, HCC827; format: cell-based, human; conditions: 48 h
Protocol: as §5

[2] = test system: BEAS-2B normal human lung epithelial cell line; experiment: MTT cell viability assay, BEAS-2B; format: cell-based; conditions: BEAS-2B normal lung epithelial cells; MTT; 48 h
Protocol: as §5

H1299 = experiment: MTT cell viability assay, H1299; format: cell-based, human; conditions: 48 h
Protocol: as §5

H460 = experiment: MTT cell viability assay, H460; format: cell-based, human; conditions: 48 h
Protocol: as §5

H1650 = experiment: MTT cell viability assay, H1650; format: cell-based, human; conditions: 48 h
Protocol: as §5

H292 = experiment: MTT cell viability assay, H292; format: cell-based, human; conditions: 48 h
Protocol: as §5

LTEP-A-2 cells = experiment: Cell cycle by PI flow cytometry, LTEP-A-2; format: cell-based, human; conditions: diplatin 50 µM, DDP 5 µM, CBP 100 µM
Protocol: (§7) Then, the cells were trypsinized, washed with PBS, and fixed in 1.5 ml 95% ethanol and left at 4°C overnight. They were then incubated with RNase and stained with propidium iodide (PI) (Multi Sciences Biotech Co., Ltd). PI absorbance was determined using a Cytomics FC500 Flow Cytometer (Beckman Coulter, USA).

[3] = Splenic index (spleen weight-to-body weight ratio); format: in vivo, mice; conditions: diplatin 30, 60, 120 mg/kg; DDP 6 mg/kg; CBP 60 mg/kg
A549/DDP = experiment: MTT cell viability assay, A549/DDP; format: cell-based, human; conditions: A549/DDP (DDP-resistant), 48 h
Protocol: as §5

[4] = test system: bone marrow karyocyte count; experiment: Bone marrow karyocyte count; format: in vivo, mice
A549 = experiment: MTT cell viability assay, A549; format: cell-based, human; conditions: 48 h
Protocol: as §5

LTEP-A-2 = experiment: MTT cell viability assay, LTEP-A-2; format: cell-based, human; conditions: 48 h
Protocol: as §5

lung tumor cell lines = experiment: MTT cell viability assay, panel of lung tumor cell lines; format: cell-based, human; conditions: 48 h, read-out: IC50 range over the lung tumor cell lines
Protocol: as §5

H292 cells = experiment: Cell cycle by PI flow cytometry, H292; format: cell-based, human; conditions: diplatin 50 μM, DDP 5 μM, CBP 100 μM
Protocol: as §7

H460 cells = experiment: Cell cycle by PI flow cytometry, H460; format: cell-based, human; conditions: diplatin 50 µM, DDP 5 µM, CBP 100 µM
Protocol: as §7

H292 tumors = experiment: TUNEL assay of H292 xenograft tumor sections; format: in vivo, mice; conditions: diplatin 120 mg/kg, DDP 6 mg/kg, CBP 60 mg/kg
Protocol: as §6

[5] = Body weight and tolerability of A549 and H292 xenograft mice; format: in vivo; conditions: diplatin 120 mg/kg; CBP 60 mg/kg; every 3 days i.v.
Protocol: Cells in logarithmic growth were washed with PBS and suspended in serum-free medium. Portions of the suspension (5 × 10^6 cells in 0.1 ml/mouse) were mixed at a 3:1 ratio with Matrigel basement membrane matrix and injected subcutaneously into the mice. Following 2 weeks of growth, tumor tissues were cut into multiple 2 × 2 × 2 mm^3 pieces and implanted using a range trocar subcutaneously (s.c. injection) into the left forepaw armpit of each mouse ([Jiang et al., 2017]). Treatment with pharmacology was started when the tumors reached an average volume of 100–200 mm^3. The mice were randomly divided into six groups (n = 14/group).
Body weight and tumor size were assessed every 3 days. Tumor size was measured using a caliper, the volumes were calculated according to the following standard formula: V = (L × W^2)/2 (V = tumor volume, L = largest diameter of tumor, W = smallest diameter of tumor). On day 25, all mice were sacrificed by cervical dislocation, and the tumors were removed and weighed.

A549 cells = experiment: Cell cycle by PI flow cytometry, A549; format: cell-based, human; conditions: diplatin 50 μM, DDP 5 μM, CBP 100 μM
Protocol: as §7

[6] = test system: JNK, Erk1/2 and p38 phosphorylation in A549 and H292 cells; experiment: Western blot of MAPK phosphorylation (JNK, Erk1/2, p38); format: cell-based, human; conditions: for Erk1/2 and p38 phosphorylation: diplatin 10, 25, 50 μM, DDP 5 μM, CBP 100 μM
Protocol: (§8) Cells were treated with diplatin, DDP, and CBP before being lysed. After centrifugation at 12,000 rpm for 10 min, an equal amount of protein from each group was subjected to electrophoresis on 10% SDS-PAGE gels. The proteins in the gel were then electroblotted onto polyvinylidene fluoride (PVDF) membranes (Millipore, Massachusetts, USA). After incubation in the blocking buffer (1× TBS, 0.1% Tween-20, and 5% w/v dry nonfat milk) for 1 h at room temperature, the membranes were incubated with the primary antibody at 4°C overnight. Next, membranes were rinsed with TBST, and then secondary antibodies were applied (LI-COR, USA) at room temperature for 1 h. Immunoreactive bands were visualized by a two-color infrared imaging system (Odyssey, LI-COR, USA).

[7] = test system: peripheral blood cell count; experiment: Peripheral blood cell count of treated xenograft mice; format: in vivo; conditions: diplatin 120 mg/kg; DDP 6 mg/kg; CBP 60 mg/kg
[8] = test system: p53, Fas, and Bax expressions in A549 and H292 cells; experiment: Western blot of p53, Fas and Bax; format: cell-based, human; conditions: 10 μM SP600125 pretreatment 0.5 h, 25 μM diplatin 48 h
Protocol: as §8

[9] = set-up: method as in Moraleja et al., 2018; conditions: rats; ref Moraleja et al., 2018; cited from earlier work

N.N.O=C([O-])C1(C(=O)[O-])CCC1.[Pt+2] [CBP, carboplatin]
Mice ED50 [1]: 59.5 mg/kg | IC50 (Calu-3): 790 µM | Mice LD50 (normal ICR mice): 150 mg/kg | apoptosis (apoptotic index, TUNEL) (A549 tumors): 18.5% | IC50 (HCC827): 328 µM | IC50 [2]: 461 µM | IC50 (H1299): 274 µM | IC50 (H460): 229 µM | IC50 (H1650): 209 µM | IC50 (H292): 257 µM | effect on cell cycle distribution (LTEP-A-2 cells): induced cell cycle arrest in S phase | splenic index relative to control [3]: no difference relative to control | IC50 (A549/DDP): 300 µM | bone marrow karyocyte count compared with the 120 mg/kg diplatin-treated group ([4]; DDP 6 mg/kg, CBP 60 mg/kg): decreased bone marrow karyocyte count more | IC50 (A549): 221 µM | IC50 (LTEP-A-2): 57 µM | IC50 (lung tumor cell lines): 57 to 790 µM | effect on cell cycle distribution (H292 cells): induced cell cycle arrest in S phase | effect on cell cycle distribution (H460 cells): induced cell cycle arrest in S phase | apoptosis (apoptotic index, TUNEL) (H292 tumors): 24.9% | reduction of body weight by day 25 [5]: 18.71% | effect on cell cycle distribution (A549 cells): induced cell cycle arrest in S phase | Erk1/2 and p38 phosphorylation [6]: failed to induce Erk1/2 and p38 phosphorylation | decrease of peripheral blood cell count [7]: 67.9%

Oc1c2ccccc2c2c3c(cccc13)N=N2 [SP600125]
effect on diplatin-induced p53, Fas, and Bax expression [8]: suppressed

N.N.[Cl][Pt][Cl] [DDP, cisplatin]
Mice ED50 [1]: 6.0 mg/kg | IC50 (Calu-3): 33.5 µM | Pt accumulation in the kidney compared with the CBP group [9]: approximately five-fold higher | IC50 (HCC827): 14.7 µM | IC50 [2]: 19.3 µM | IC50 (H1299): 18.7 µM | IC50 (H1650): 11.6 µM | IC50 (H292): 6 µM | effect on cell cycle distribution (LTEP-A-2 cells): induced cell cycle arrest in S phase | IC50 (A549/DDP): 151 µM | bone marrow karyocyte count compared with the 120 mg/kg diplatin-treated group ([4]; mouse, in vivo): decreased bone marrow karyocyte count more | IC50 (A549): 46.7 µM | IC50 (LTEP-A-2): 6.2 µM | effect on cell cycle distribution (H292 cells): induced cell cycle arrest in S phase | effect on cell cycle distribution (H460 cells): induced cell cycle arrest in S phase | effect on cell cycle distribution (A549 cells): induced cell cycle arrest in S phase | Erk1/2 and p38 phosphorylation [6]: failed to induce Erk1/2 and p38 phosphorylation | JNK phosphorylation levels ([6]; diplatin 10–50 μM, DDP 10 μM, 0.5 h): elevated
